Source: PubChem BioAssay (NCI)
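Assay format: 96-well plates, 48-hour exposure. GI50 marks 50% less growth. At the TGI there is no net growth.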

Legend:
Experiment in all cases: DTP human tumour cell line panel, 48 h
786-0 renal = system: 786-0 renal
A498 renal = system: A498 renal
A549 NSCLC = system: A549 NSCLC
ACHN renal = system: ACHN renal
BT-549 breast = system: BT-549 breast
CAKI-1 renal = system: CAKI-1 renal
CCRF-CEM leukemia = system: CCRF-CEM leukemia
COLO 205 colon = system: COLO 205 colon
DU-145 prostate = system: DU-145 prostate
EKVX NSCLC = system: EKVX NSCLC
HCT-116 colon = system: HCT-116 colon
HCT-15 colon = system: HCT-15 colon
HOP-62 NSCLC = system: HOP-62 NSCLC
HOP-92 NSCLC = system: HOP-92 NSCLC
HS 578T breast = system: HS 578T breast
HT29 colon = system: HT29 colon
IGROV1 ovarian = system: IGROV1 ovarian
K-562 leukemia = system: K-562 leukemia
KM12 colon = system: KM12 colon
LOX IMVI melanoma = system: LOX IMVI melanoma
M14 melanoma = system: M14 melanoma
MALME-3M melanoma = system: MALME-3M melanoma
MCF7 breast = system: MCF7 breast
MDA-MB-231 breast = system: MDA-MB-231 breast
MDA-MB-435 = system: MDA-MB-435
MOLT-4 leukemia = system: MOLT-4 leukemia
NCI-H226 lung = system: NCI-H226 lung
NCI-H23 lung = system: NCI-H23 lung
NCI-H460 lung = system: NCI-H460 lung
NCI-H522 lung = system: NCI-H522 lung
NCI/ADR-RES ovarian = system: NCI/ADR-RES ovarian
OVCAR-3 ovarian = system: OVCAR-3 ovarian
OVCAR-4 ovarian = system: OVCAR-4 ovarian
OVCAR-5 ovarian = system: OVCAR-5 ovarian
OVCAR-8 ovarian = system: OVCAR-8 ovarian
PC-3 prostate = system: PC-3 prostate
RPMI-8226 leukemia = system: RPMI-8226 leukemia
RXF 393 renal = system: RXF 393 renal
SF-268 CNS = system: SF-268 CNS
SF-295 CNS = system: SF-295 CNS
SF-539 CNS = system: SF-539 CNS
SK-MEL-2 melanoma = system: SK-MEL-2 melanoma
SK-MEL-28 melanoma = system: SK-MEL-28 melanoma
SK-MEL-5 melanoma = system: SK-MEL-5 melanoma
SK-OV-3 ovarian = system: SK-OV-3 ovarian
SN12C renal = system: SN12C renal
SNB-19 CNS = system: SNB-19 CNS
SNB-75 CNS = system: SNB-75 CNS
SR leukemia = system: SR leukemia
SW-620 colon = system: SW-620 colon
T-47D breast = system: T-47D breast
TK-10 renal = system: TK-10 renal
U251 CNS = system: U251 CNS
UACC-257 melanoma = system: UACC-257 melanoma
UACC-62 melanoma = system: UACC-62 melanoma
UO-31 renal = system: UO-31 renal

**Q.** How did the GI50 (786-0 renal) turn out when `O=C1Nc2ccccc2/C1=C\c1c(Cl)nc2sccn12` was run?
**A.** 1.32 µM

**Q.** And the TGI (786-0 renal)?
**A.** 4.94 µM

**Q.** And the GI50 (A498 renal)?
**A.** 9.38 µM

**Q.** What about the TGI (A498 renal) of the same compound?
**A.** 22.4 µM

**Q.** And the GI50 (A549 NSCLC)?
**A.** 3.51 µM

**Q.** What about the TGI (A549 NSCLC) of the same compound?
**A.** > 43.1 µM

**Q.** And the GI50 (ACHN renal)?
**A.** 3.12 µM

**Q.** And the TGI (ACHN renal)?
**A.** 18.2 µM

**Q.** What about the GI50 (BT-549 breast) of the same compound?
**A.** 1.15 µM

**Q.** What about the TGI (BT-549 breast) of the same compound?
**A.** 12.7 µM

**Q.** And the GI50 (CAKI-1 renal)?
**A.** 1.22 µM

**Q.** What about the TGI (CAKI-1 renal) of the same compound?
**A.** 4.8 µM

**Q.** What about the GI50 (CCRF-CEM leukemia) of the same compound?
**A.** 2.68 µM

**Q.** And the TGI (CCRF-CEM leukemia)?
**A.** 15.8 µM

**Q.** And the GI50 (COLO 205 colon)?
**A.** 1.11 µM

**Q.** And the TGI (COLO 205 colon)?
**A.** 5.97 µM

**Q.** What about the GI50 (DU-145 prostate) of the same compound?
**A.** 5.75 µM

**Q.** What about the TGI (DU-145 prostate) of the same compound?
**A.** 53.4 µM

**Q.** What about the GI50 (EKVX NSCLC) of the same compound?
**A.** 1.88 µM

**Q.** What about the TGI (EKVX NSCLC) of the same compound?
**A.** 13.8 µM

**Q.** What about the GI50 (HCT-116 colon) of the same compound?
**A.** 1.94 µM

**Q.** What about the TGI (HCT-116 colon) of the same compound?
**A.** 12.8 µM

**Q.** And the GI50 (HCT-15 colon)?
**A.** 1.18 µM

**Q.** What about the TGI (HCT-15 colon) of the same compound?
**A.** 8.46 µM

**Q.** And the GI50 (HOP-62 NSCLC)?
**A.** 1.82 µM

**Q.** What about the TGI (HOP-62 NSCLC) of the same compound?
**A.** 12.9 µM

**Q.** What about the GI50 (HOP-92 NSCLC) of the same compound?
**A.** 4.31 µM

**Q.** And the TGI (HOP-92 NSCLC)?
**A.** 11.1 µM

**Q.** And the GI50 (HS 578T breast)?
**A.** 4.14 µM

**Q.** What about the TGI (HS 578T breast) of the same compound?
**A.** 35.7 µM

**Q.** And the GI50 (HT29 colon)?
**A.** 1.32 µM

**Q.** And the TGI (HT29 colon)?
**A.** > 32.2 µM

**Q.** And the GI50 (IGROV1 ovarian)?
**A.** 5.05 µM

**Q.** And the TGI (IGROV1 ovarian)?
**A.** > 54.6 µM

**Q.** What about the TGI (K-562 leukemia) of the same compound?
**A.** > 100 µM

**Q.** And the GI50 (KM12 colon)?
**A.** 0.67 µM

**Q.** What about the TGI (KM12 colon) of the same compound?
**A.** 19.4 µM

**Q.** What about the GI50 (LOX IMVI melanoma) of the same compound?
**A.** 3.45 µM

**Q.** What about the TGI (LOX IMVI melanoma) of the same compound?
**A.** 17.4 µM

**Q.** And the GI50 (M14 melanoma)?
**A.** 2.02 µM

**Q.** What about the TGI (M14 melanoma) of the same compound?
**A.** 9.23 µM

**Q.** What about the GI50 (MALME-3M melanoma) of the same compound?
**A.** 5.48 µM

**Q.** And the TGI (MALME-3M melanoma)?
**A.** > 44.7 µM

**Q.** What about the GI50 (MCF7 breast) of the same compound?
**A.** 0.66 µM

**Q.** And the TGI (MCF7 breast)?
**A.** 17.3 µM

**Q.** What about the GI50 (MDA-MB-231 breast) of the same compound?
**A.** 6.87 µM

**Q.** What about the TGI (MDA-MB-231 breast) of the same compound?
**A.** 22.8 µM

**Q.** And the GI50 (MDA-MB-435)?
**A.** 0.441 µM

**Q.** What about the TGI (MDA-MB-435) of the same compound?
**A.** 1.11 µM

**Q.** And the GI50 (MOLT-4 leukemia)?
**A.** 3.52 µM

**Q.** What about the TGI (MOLT-4 leukemia) of the same compound?
**A.** > 100 µM

**Q.** And the GI50 (NCI-H226 lung)?
**A.** 6.11 µM

**Q.** And the TGI (NCI-H226 lung)?
**A.** 16 µM

**Q.** What about the GI50 (NCI-H23 lung) of the same compound?
**A.** 4.7 µM

**Q.** And the TGI (NCI-H23 lung)?
**A.** 17.1 µM

**Q.** And the GI50 (NCI-H460 lung)?
**A.** 2.76 µM

**Q.** What about the TGI (NCI-H460 lung) of the same compound?
**A.** 29.8 µM

**Q.** What about the GI50 (NCI-H522 lung) of the same compound?
**A.** 3.9 µM

**Q.** What about the TGI (NCI-H522 lung) of the same compound?
**A.** 29.8 µM

**Q.** And the GI50 (NCI/ADR-RES ovarian)?
**A.** 1.26 µM

**Q.** What about the TGI (NCI/ADR-RES ovarian) of the same compound?
**A.** 7.64 µM

**Q.** What about the GI50 (OVCAR-3 ovarian) of the same compound?
**A.** 1.36 µM

**Q.** And the TGI (OVCAR-3 ovarian)?
**A.** 3.73 µM

**Q.** What about the GI50 (OVCAR-4 ovarian) of the same compound?
**A.** 13.9 µM

**Q.** What about the TGI (OVCAR-4 ovarian) of the same compound?
**A.** > 61.4 µM

**Q.** And the GI50 (OVCAR-5 ovarian)?
**A.** 3.06 µM

**Q.** What about the TGI (OVCAR-5 ovarian) of the same compound?
**A.** 9.39 µM

**Q.** What about the GI50 (OVCAR-8 ovarian) of the same compound?
**A.** 3.85 µM

**Q.** What about the TGI (OVCAR-8 ovarian) of the same compound?
**A.** 35.8 µM

**Q.** What about the GI50 (PC-3 prostate) of the same compound?
**A.** 2.44 µM

**Q.** And the TGI (PC-3 prostate)?
**A.** 23.9 µM

**Q.** What about the GI50 (RPMI-8226 leukemia) of the same compound?
**A.** 1.17 µM

**Q.** What about the TGI (RPMI-8226 leukemia) of the same compound?
**A.** 4.48 µM

**Q.** And the GI50 (RXF 393 renal)?
**A.** 3.2 µM

**Q.** What about the TGI (RXF 393 renal) of the same compound?
**A.** 19 µM

**Q.** And the GI50 (SF-268 CNS)?
**A.** 5.41 µM

**Q.** What about the TGI (SF-268 CNS) of the same compound?
**A.** 29.5 µM

**Q.** What about the GI50 (SF-295 CNS) of the same compound?
**A.** 1.11 µM

**Q.** What about the TGI (SF-295 CNS) of the same compound?
**A.** 3.24 µM

**Q.** And the GI50 (SF-539 CNS)?
**A.** 4.47 µM

**Q.** What about the TGI (SF-539 CNS) of the same compound?
**A.** > 43.3 µM

**Q.** And the GI50 (SK-MEL-2 melanoma)?
**A.** 4.16 µM

**Q.** And the TGI (SK-MEL-2 melanoma)?
**A.** > 41.2 µM

**Q.** What about the GI50 (SK-MEL-28 melanoma) of the same compound?
**A.** 4.91 µM

**Q.** What about the TGI (SK-MEL-28 melanoma) of the same compound?
**A.** 26.8 µM

**Q.** And the GI50 (SK-MEL-5 melanoma)?
**A.** 1.77 µM

**Q.** And the TGI (SK-MEL-5 melanoma)?
**A.** 8.51 µM

**Q.** What about the GI50 (SK-OV-3 ovarian) of the same compound?
**A.** 4.18 µM

**Q.** What about the TGI (SK-OV-3 ovarian) of the same compound?
**A.** 10.8 µM

**Q.** And the GI50 (SN12C renal)?
**A.** 6.84 µM

**Q.** What about the TGI (SN12C renal) of the same compound?
**A.** 20.6 µM

**Q.** And the GI50 (SNB-19 CNS)?
**A.** 6.78 µM

**Q.** And the TGI (SNB-19 CNS)?
**A.** 37.7 µM

**Q.** And the GI50 (SNB-75 CNS)?
**A.** 3.23 µM

**Q.** What about the TGI (SNB-75 CNS) of the same compound?
**A.** 8.34 µM

**Q.** What about the GI50 (SR leukemia) of the same compound?
**A.** 0.359 µM

**Q.** What about the TGI (SR leukemia) of the same compound?
**A.** > 100 µM

**Q.** And the GI50 (SW-620 colon)?
**A.** 3 µM

**Q.** And the TGI (SW-620 colon)?
**A.** > 58.9 µM

**Q.** And the GI50 (T-47D breast)?
**A.** 8.88 µM

**Q.** And the TGI (T-47D breast)?
**A.** 33.9 µM

**Q.** What about the GI50 (TK-10 renal) of the same compound?
**A.** 3.24 µM

**Q.** What about the TGI (TK-10 renal) of the same compound?
**A.** 8.21 µM

**Q.** And the GI50 (U251 CNS)?
**A.** 2.45 µM

**Q.** And the TGI (U251 CNS)?
**A.** 8.31 µM

**Q.** And the GI50 (UACC-257 melanoma)?
**A.** 8.03 µM

**Q.** And the TGI (UACC-257 melanoma)?
**A.** > 70.8 µM

**Q.** And the GI50 (UACC-62 melanoma)?
**A.** 1.34 µM

**Q.** What about the TGI (UACC-62 melanoma) of the same compound?
**A.** 11.9 µM

**Q.** And the GI50 (UO-31 renal)?
**A.** 2.69 µM

**Q.** What about the TGI (UO-31 renal) of the same compound?
**A.** 16.8 µM
